Assay results from PMC3774784 (Bioorganic & medicinal chemistry letters, 2011).
Read-outs that look alike come from different tables or passages of the source. Each block holds one molecule with its values, some of them ahead of it.

Legend:
KDR [1] = settings: read-out: Reported KDR Inhibition IC50; cited from earlier work
human VEGFR2 kinase = human VEGFR2 kinase (Homo sapiens, UniProt P35968); test: KDR ELISA assay; format: biochemical
KDR [2] = settings: read-out: reported IC50 value; final ATP concentration 2 μM; cited from earlier work

Sequence of human VEGFR2 kinase (P35968 790-1356 limits assumed): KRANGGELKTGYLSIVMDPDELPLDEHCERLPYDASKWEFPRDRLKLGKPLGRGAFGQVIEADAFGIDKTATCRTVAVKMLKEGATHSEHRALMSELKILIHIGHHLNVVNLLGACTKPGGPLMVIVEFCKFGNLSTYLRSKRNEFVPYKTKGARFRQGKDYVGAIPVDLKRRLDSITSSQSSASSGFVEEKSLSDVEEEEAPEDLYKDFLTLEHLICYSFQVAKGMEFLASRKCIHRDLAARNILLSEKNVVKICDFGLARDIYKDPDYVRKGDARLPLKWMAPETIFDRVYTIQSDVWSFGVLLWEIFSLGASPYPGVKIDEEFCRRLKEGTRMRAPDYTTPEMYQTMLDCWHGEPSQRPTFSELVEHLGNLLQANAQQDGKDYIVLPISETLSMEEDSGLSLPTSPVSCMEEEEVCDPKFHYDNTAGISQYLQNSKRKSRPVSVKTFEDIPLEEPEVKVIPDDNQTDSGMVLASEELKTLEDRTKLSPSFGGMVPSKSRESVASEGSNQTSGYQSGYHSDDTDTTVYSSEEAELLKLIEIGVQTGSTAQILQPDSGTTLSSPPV

Structure (SMILES): COc1cc2ncnc(Nc3ccc(Cl)cc3)c2cc1OC [Compound 10, (4-Chloro-phenyl)-(6,7-dimethoxy-quinazolin-4-yl)-amine]
IC50 (KDR [1]): 800 nM
KDR assay activity in words (human VEGFR2 kinase): relatively inactive

IC50 (human VEGFR2 kinase): 2500 nM
Structure (SMILES): COc1cc2ncnc(Nc3ccc(C)c(F)c3)c2cc1OC [Compound 14, (6,7-Dimethoxy-quinazolin-4-yl)-(3-fluoro-4-methyl-phenyl)-amine]

KDR assay activity in words (human VEGFR2 kinase): active
Structure (SMILES): COc1ccc(-c2cnc3c(-c4ccsc4)cnn3c2)cc1 [Compound 21, 6-(4-Methoxy-phenyl)-3-thiophen-3-yl-pyrazolo[1,5-a]pyrimidine]

IC50 (human VEGFR2 kinase; read-out: KDR IC50, 20 μM ATP): 800 nM
Structure (SMILES): COc1cc2nccc(Oc3ccc(NC(=O)Nc4ccc(F)cc4F)c(F)c3)c2cc1OC [Ki8751, reference compound]
IC50 (KDR [2]): 0.9 nM
